Data as given in US20040071656A1, “Modulation of heat-shock-protein-based immunotherapies” (priority 2001, published 2004).
Blank lines part the entries; values can stand above or below the substance they belong to. No end group written: not given here. *: point of attachment. FITC = O=C1OC2(c3ccc(O)cc3Oc3cc(O)ccc32)c2ccc(NC(=S)*)cc21

Columns and labels:
human CD40 [1] = molecular target: T1, human CD40 (Homo sapiens, UniProt P25942); assay: Uptake of peptide C-FITC in HEK293T-CD40 cells, confocal microscopy; format: cell-based; conditions: 0.5 μM protein, 5 μM peptide C-FITC, ADP, 30 min 0° C. then 15 min 37° C.
T1 construct: CD40 full-length cDNA was cloned by PCR; expressed in transfected cells
Experimental: For experiments to study uptake of Hsp70/peptide C-FITC complex, HEK293T-CD40 and HEK293T-MCAT cells were seeded on collagen-coated cover slips 24 h prior to the experiment. For complex formation Hsp70, its N-terminal domain (N70) or its C-terminal domain (C70) were preincubated with a 10-fold molar excess of peptide C-FITC for 30 min at 37° C., as described above for the biotinylated proteins. HEK293T-CD40 and HEK293T-MCAT were incubated with 0.5 μM of Hsp70, N70 or C70, preincubated with 2 mM ADP and 5 μM peptide C-FITC, or 5 μM peptide C-FITC alone for 30 min on ice. Thereafter the cells were washed three times with medium, incubated for 15 min at 37° C., and fixed, embedded in Fluoromount-G and analyzed by confocal microscopy (LSM 510, Zeiss).
Next, the binding of Hsp70-peptide complex to CD40 was studied, which results in the uptake of peptide. To this end, HEK293T-CD40 cells and HE293T-MCAT cells (not expressing CD40) were incubated with a fluorescent (FITC) derivative of peptide C for 30 min at 0° C. in the presence of ADP, with or without Hsp70 or its two domains. After removal of excess material, the cells were incubated at 37° C. for 15 min, fixed and then analyzed by fluorescence microscopy. […] (FIG. 6B, panel 1). […] Neither did HEK293T-MCAT control cells give rise to a signal under any of the conditions tested (not shown). We conclude that the specific interaction of CD40 with Hsp70-peptide complex mediates the uptake of peptide.
Details for FIG. 6. Binding of Hsp70 complex to CD40-expressing HEK293T cells induces signaling via p38 and causes peptide uptake. A. HEK293T-cells, stably transfected with cDNA encoding human CD40 or the unrelated membrane protein murine cationic amino acid transporter (MCAT) were incubated for 20 min at 37° C. with CD40L or with Hsp70, C70, N70, bacterial DnaK either in the presence of ADP or AMPPNP, or buffer alone. Thereafter cells were washed, solubilized in SDS-sample buffer, and analyzed by immunoblotting with antibodies directed against phosphorylated (active) p38. Blots were also developed with an antibody against tubulin in order to control for equal loading. B. Cells were incubated at 0° C. for 30 min with recombinant human Hsp70, N70, or C70, all in the presence FITC-labeled peptide, or with the FITC-labeled peptide alone. Thereafter cells were washed, incubated for 15 min at 37° C., and processed for fluorescence microscopy. Upper left panel: Hsp70, upper right panel: FITC-labeled peptide alone, lower left panel: C70, lower right panel: N70. Only cells stably transfected with CD40 are shown. Cell boundaries are emphasized with broken lines.

[2] = molecular target: T2, exoplasmic domain of human CD40 (GST-CD40) (Homo sapiens, UniProt P25942); assay: GST-CD40 binding and competition assay with recombinant Hsp70 and its domains
T2 construct: The cDNA for the exoplasmic domain of CD40 (amino acids 20-212); made in house; host or cells: E. coli, pGEX-2T
Experimental: For binding assays with recombinant Hsp70 and its domains, 3 μM His6-Hsp70 or its His6-tagged domains were incubated with 2 mM ATP, 2 mM ADP or 2 mM ADP and 28 μM peptide C in 50 μl binding buffer (10 mM MOPS/KOH, pH 7.2, 150 mM KCl and 3 mM MgCl2) for 30 min at 37° C. In competition experiments binding was probed with either a 10-fold excess of Hsp70, the two domains, or DnaK, or with a 5-fold excess of Hip or Bag 1 for 10 min at 0° C. To this end, Hsp70, N70, C70 and DnaK were preincubated with ADP, ATP and peptide C as described above. For comparison of CD40 binding of Hsp70 and its N-terminal domain, Hsp70 was preincubated in the presence or absence (mock treatment) of a 30-fold molar excess of peptide C. 3 μM of GST or GST-CD40 was added to the samples and incubated for 20 min at 16° C. For titration of peptide C, 5- to 50-fold excess of peptide C (15-150 μM) was added to the preincubation of Hsp70. Thereafter the samples were combined with 20 μl of 1% BSA-treated Glutathione Sepharose 4 Fast Flow and incubated in the presence of 2 mM DTT for another 20 min at 16° C. Unbound proteins were removed by washing the beads three times with 1 ml PBS, and immobilized proteins eluted with 30 μl elution buffer for 20 min at 22° C. 10 μl of the eluates were subjected to SDS-PAGE and analyzed by immunoblotting using a Penta-His-antibody (Quiagen). Blot signals were quantified by Quantity One (Biorad).
Details for FIG. 3. Binding of Hsp70 to CD40 is direct and depends on ADP. A. Hela-cell lysates were incubated with GST (control), or GST-CD40 in the amounts indicated. Thereafter samples were affinity purified on glutathione-Sepharose as outlined in Experimental Procedures, subjected to SDS-PAGE and analyzed by immunoblotting with antibodies directed against Hsc70 and Hsp70 (upper lanes), and against Hsp90 (lower lanes). B. Human recombinant His6-tagged Hsp70 was incubated with ATP, ADP, or an excess of peptide C, followed by addition of GST-CD40 or GST alone. After affinity purification samples were analyzed by immunoblotting as described in A, using antibodies directed against the His6-tag. C. Recombinant human His6-tagged Hsp70 was incubated with peptide C, either in the presence or absence of ADP. The reactions were then incubated with ANA1-cell lysates as described in Experimental Procedures. Protein bound to Hsp70 was analyzed by affinity purification on Ni-NTA-agarose and immunoblotting with antibodies directed against CD40.
Details for FIG. 4. Hsp70 binding to CD40 is mediated by the N-terminal ATPase domain and is competed by Hip. A. Human His6-tagged Hsp70, its N- or C-terminal domains, or recombinant bacterial DnaK was incubated either with GST-CD40, or with GST. B. Recombinant DnaK was incubated with ATP, ADP, or an excess of peptide C, followed by addition of GST-CD40 or GST alone. C. His6-tagged N-terminal domain of Hsp70 (N70) was incubated in the presence of ATP or ADP, followed by incubation with a 10-fold molar excess of Hsp70 in the presence of ADP or ATP. D: Recombinant human His6-tagged Hsp70 protein was incubated with a 5-fold molar excess of either recombinant Hip protein or Bag-1, and with GST-CD40 or GST as a control. Bound protein was analyzed after affinity purification on glutathione-Sepharose by immunoblotting with an antibody directed against the N-terminal His6-tags or with an antibody directed against DnaK.
Details for FIG. 5. Peptide substrate stimulates Hsp70 binding to CD40. A. His6-tagged Hsp70 was incubated with increasing concentrations of peptide C as indicated in the Figure, and binding to GST-CD40 analyzed by immunoblotting with antibodies directed against the His6-tag. The lower panel is a quantitation of the data. B. Equivalent concentrations (3 μM) of His6-tagged Hsp70 (in the presence of a 30-fold molar excess of peptide C) or His6-tagged N70 was incubated with GST-CD40, and bound protein was analyzed as described above.

human CD40 [3] = molecular target: T1, human CD40; assay: Binding to Cos-7 cells transiently transfected with human CD40 cDNA, fluorescence microscopy; format: cell-based; conditions: 250 nM biotinylated protein, 30 min at 0° C.
Experimental: Cell culture and fluorescence microscopy. The murine macrophage cell line ANA1 was kindly provided by H. Wagner (Munich, Germany). ANA-1 cells were cultured in VLE-RPMI 1640 (Biochrom), supplemented with 10% FCS, 2 mM L-glutamine and antibiotics. For fluorescence microscopy, ANA1 cells were either stimulated with LPS (20 μg/ml, Sigma, Germany), or kept in an LPS-free medium (mock treatment) for 7 h. After stimulation, cells were harvested and incubated with 100 nM biotinylated Hsp70, biotinylated GST, or Hsp70/peptide C-biotin complex for 30 min at 0° C. in VLE-RPMI 1640. After incubation cells were processed for staining with streptavidin-TRITC (Sigma, Germany), fixed with paraformaldehyde and analyzed by fluorescence microscopy (Axiovert 35, Zeiss) as described (Sondermann et al., 2000). […] Twenty-four h post-transfection cells were incubated with 250 nM biotinylated Hsp70, biotinylated GST or Hsp70/peptide C-biotin complex for 30 min at 0° C. in DMEM, fixed, stained with streptavidin-TRITC (Sigma, Germany), and analyzed by fluorescence microscopy as described (Sondermann et al., 2000, idem). […] Stably transfected cell lines were analyzed by immunoblotting for CD40 expression using an anti-CD40 antibody (CSA180, Stressgen). […]
Mock-treated and LPS-stimulated ANA-1 cells were analyzed for their expression of CD40. […]

Hsp70 = conditions: Greene et al., 1995; read-out: affinity of peptide C for Hsp70; cited from earlier work
[4] = molecular target: T2, exoplasmic domain of human CD40 (GST-CD40); assay: GST-CD40 pull-down of endogenous heat shock proteins from Hela cell lysate; format: binding; conditions: 80 or 400 pmol GST-CD40, immunoblot
Experimental: Binding assays with GST-CD40. For binding of endogenous Hsp70 and Hsc70 from Hela cell lysate, Hela cells were lysed as described above and centrifuged at 100,000 g at 4° C. for 1 h. 20 μl bed volume of Glutathione Sepharose 4 Fast Flow (Amersham Pharmacia) per sample were preincubated with 80 pmol or 400 pmol of GST or GST-CD40 fusion protein in 50 μl binding buffer. Unbound protein was removed by washing three times with PBS. The beads were treated with 1% BSA/PBS to avoid non-specific binding, and than incubated with 150 μl of Hela cell lysate in the presence of 2 mM DTT for 20 min at 16° C. […] 10 μl of the eluates was subjected to SDS-PAGE and analyzed by immunoblotting using an anti-Hsc/Hsp70 antibody and an anti-Hsp90: antibody (SPA822 and SPA835, Stressgen). […]
Details for FIG. 3. […] Thereafter samples were affinity purified on glutathione-Sepharose as outlined in Experimental Procedures, subjected to SDS-PAGE and analyzed by immunoblotting with antibodies directed against Hsc70 and Hsp70 (upper lanes), and against Hsp90 (lower lanes). […] After affinity purification samples were analyzed by immunoblotting as described in A, using antibodies directed against the His6-tag. […] Protein bound to Hsp70 was analyzed by affinity purification on Ni-NTA-agarose and immunoblotting with antibodies directed against CD40.

T2 sequence (P25942 20-212): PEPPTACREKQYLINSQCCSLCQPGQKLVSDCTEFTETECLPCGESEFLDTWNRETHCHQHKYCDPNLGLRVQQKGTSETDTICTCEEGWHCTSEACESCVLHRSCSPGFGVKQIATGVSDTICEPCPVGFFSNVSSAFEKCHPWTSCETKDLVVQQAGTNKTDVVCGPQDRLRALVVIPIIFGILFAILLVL
T1 sequence (P25942 21-277): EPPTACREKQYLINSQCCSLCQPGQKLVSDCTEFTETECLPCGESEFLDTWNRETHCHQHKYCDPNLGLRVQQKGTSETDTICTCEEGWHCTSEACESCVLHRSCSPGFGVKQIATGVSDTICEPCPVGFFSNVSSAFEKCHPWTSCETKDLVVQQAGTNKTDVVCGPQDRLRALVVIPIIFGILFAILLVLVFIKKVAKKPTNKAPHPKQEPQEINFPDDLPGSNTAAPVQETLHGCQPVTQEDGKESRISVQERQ

Substance: C70: Recombinant C-terminal peptide-binding domain of human Hsp70, residues 382-641
uptake of fluorescent (FITC) peptide C into HEK293T-CD40 cells (human CD40 [1]): did not result in a peptide signal above background
competition for the binding of full-length Hsp70 to CD40 ([2]; ADP, 5-fold molar excess of competitor): neither the C-terminal Hsp70 domain (C70) nor DnaK had a significant effect on binding

uptake of fluorescent (FITC) peptide C into HEK293T-CD40 cells (human CD40 [1]): No staining above background
Substance: FITC-GCEVFGLGWRSYKH ({FITC}-GCEVFGLGWRSYKH) [reference compound]

binding to CD40-transfected Cos-7 cells (human CD40 [3]): no binding above background
effect of peptide C on binding of Hsp70-ADP to CD40 ([2]; 5- to 50-fold excess of peptide C (15-150 μM), ADP): increased dramatically
competition of peptide C with the Hsp70-CD40 interaction ([2]; molar excess of peptide C over Hsp70, ADP): did not compete with the interaction
ka of the saturable effect of peptide on Hsp70-ADP binding to CD40 ([2]; titration of peptide C, 3 μM Hsp70, ADP): ~30 µM
Substance: GCEVFGLGWRSYKH [peptide C, reference compound]
Kd (Hsp70): 5 to 10 µM
effect of peptide C on binding of DnaK to CD40 ([2]; 10-fold molar excess of peptide C): almost completely abolishes the binding of DnaK to CD40

Substance: Hsc70: Endogenous mammalian Hsp70 family member in Hela-cell lysates
binding to GST-CD40 from Hela-cell lysates [4]: bound to GST-CD40 in a concentration dependent manner
